Source: patent publication US6579967B1, “Receptor-selective somatostatin analogs” (The Salk Institute for Biological Studies, priority 1999, dated 2003)

Target: T1, human SSTR3 (Homo sapiens, UniProt P32745)
T1 construct: expressed in transfected cells; host or cells: CHO-K1 cells and CCL39 cells
Assay: Displacement of 125I-[Leu8,D-Trp22,Tyr25]-somatostatin-28 from cloned SSTR3 (receptor autoradiography on membrane pellets)
Format: binding
Details: qualitative statement
Method: Generally, recombinant cells expressing the receptor are washed and homogenized to prepare a crude protein homogenate in a suitable buffer, as known in the art. In a typical assay, an amount of protein from the cell homogenate is placed into a small volume of an appropriate assay buffer at an appropriate pH. Candidate substances, such as potential SRIF agonists and antagonists, are added to the admixture in convenient concentrations, and the interaction between the candidate substance and the receptor polypeptide is monitored.
Receptor binding assays are performed on cloned SRIF receptors as generally set forth in Raynor et al. supra. Using such assays, one can generate KD values which are indicative of the concentration of a ligand necessary to occupy one-half (50%) of the binding sites on a selected amount of a receptor or the like, or alternatively, competitive assays can generate IC50 values which are indicative of the concentration of a competitive ligand necessary to displace a saturation concentration of a target ligand being measured from 50% of binding sites. The peptide des-AA^1,2,4,5,12,13-[D-Agl^8(Me,2-naphthoyl)]SRIF inhibits the binding to SSTR3 of an iodinated SRIF-28 ligand that has strong affinity for all five receptors.
In vitro Bioassay: The various somatostatin analogs are tested in vitro for their ability to bind to isolated cloned receptors expressed on CHO-K1 cells and CCL39 cells. CHO-K1 cells are grown in Ham's F-12 medium, and CCL39 cells are grown in Dulbecco's modified Eagle's medium/Ham's F-12(1:1) mix, supplemented with 10% fetal bovine serum, 100 U/ml penicillin and 100 μg/ml streptomycin, in humidified air containing 5% CO2 at 37° C.
Cells are washed twice with and scraped into ice-cold 0.05 M Tris-HCl (pH 7.4), collected by centrifugation, and homogenized using a rotor/stator slash system in the same buffer. After centrifugation at 120 g for 5 min. at 4° C., the supernatant is collected and centrifuged again at 48,000 g for 30 min. at 4° C. The resulting pellet is resuspended in ice-cold Tris buffer, transferred into a microfuge tube, and centrifuged at 20,000 g for 15 min. at 4° C. After withdrawal of the supernatant, the membrane pellet is stored at −80° C.
Receptor autoradiography is performed on 20 μm thick cryostat sections of the membrane pellets, mounted on microscope slides, and then stored at −20° C. For each of the tested compounds, complete displacement experiments are performed with the universal somatostatin ligand radioligand ^125I-[Leu^8,D-Trp^22,Tyr^25]-somatostatin-28 that binds with strong affinity to all five receptors. Increasing concentrations of the unlabeled peptide are used ranging from 0.1-1000 nM. Unlabeled somatostatin-28 is run in parallel using the same increasing concentrations, as a control. IC50 values are calculated after quantification of the data using a computer-assisted image processing system as known in this art.
The potencies of certain SRIF analogs to inhibit radioligand binding of ^125I-[Leu^8,D-Trp^22,[…]]SRIF-28 to the various cloned SRIF receptors are shown in the following table wherein the IC50 values are given in nanomolar concentration.

T1 sequence (P32745 whole entry): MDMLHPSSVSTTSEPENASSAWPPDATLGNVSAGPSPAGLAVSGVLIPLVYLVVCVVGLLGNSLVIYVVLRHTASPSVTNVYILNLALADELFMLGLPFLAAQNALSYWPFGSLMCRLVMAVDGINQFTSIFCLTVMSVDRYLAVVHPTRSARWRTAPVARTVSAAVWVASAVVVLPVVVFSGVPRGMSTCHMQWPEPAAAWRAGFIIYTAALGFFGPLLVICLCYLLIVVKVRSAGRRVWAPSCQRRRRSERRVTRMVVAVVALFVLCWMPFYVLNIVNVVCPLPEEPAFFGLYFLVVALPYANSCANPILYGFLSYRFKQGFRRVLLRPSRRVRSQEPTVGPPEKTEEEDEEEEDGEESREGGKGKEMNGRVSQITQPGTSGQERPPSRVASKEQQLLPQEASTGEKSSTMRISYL

Substance	binding strength and selectivity for SSTR3, in words
(cyclo 3-14)Cbm-D-Cys-Phe-Agl(NMe,Bz)-D-2Nal-Lys-Thr-Phe-Cys-OH [Peptide No. 3C]	bind selectively to human SSTR3
(cyclo 3-14)Cbm-D-Cys-Phe-Tyr-D-Agl(Me,2Np)-Lys-Thr-Aph(Cbm)-Cys-OH [Peptide No. 2N]	bind strongly and selectively to SSTR3
(cyclo 3-14)Cbm-D-Cys-Phe-Tyr-D-Agl(Me,2Np)-Lys-Thr-Aph-Cys-OH [Peptide No. 2L]	bind strongly and selectively to SSTR3
(cyclo 3-14)H-Cys-Lys-Asn-Phe-Tyr-D-Agl(Me,2Np)-Lys-Thr-Phe-Thr-Ser-Cys-OH [Peptide No. 2G]	binds selectively to SSTR3 but has fairly low affinity for all five SRIF receptors

The remaining lines, values ahead:

binding strength and selectivity for SSTR3, in words	Substance
bind strongly and selectively to SSTR3	(cyclo 3-14)Cbm-D-Cys-Phe-Tyr-D-Agl(Me,2Np)-Lys-Thr-Aph(Ac)-Cys-OH [Peptide No. 2M]
bind selectively to human SSTR3	(cyclo 3-14)H-Cys-Phe-Agl(Me,Bz)-D-1Nal-Lys-Thr-Phe-Cys-OH [Peptide No. 3B]
bind selectively to SSTR3	(cyclo 3-14)H-D-Cys-Phe-Agl(NMe,Bz)-D-2Nal-Lys-Thr-Phe-Cys-OH [Peptide No. 3A]
